Starred links: 1 amine or outer side, 2 acyl side, 3 side chain; linkers in the order of their positions; H or OH if unused. Non-standard residues stand in square brackets, D forms with d. Residues, ends and D or L forms follow the SMILES beside them. *: point of attachment. dPro(4R-(4-pyridylmethyl)) = O=C(O)[C@H]1C[C@@H](Cc2ccncc2)CN1; Trp(βS-Me,4-F) = C[C@@H](c1c[nH]c2cccc(F)c12)[C@H](N)C(=O)O; Bip(4'-COOH) = N[C@@H](Cc1ccc(-c2ccc(C(=O)O)cc2)cc1)C(=O)O; Trp(4-Cl) = N[C@@H](Cc1c[nH]c2cccc(Cl)c12)C(=O)O; X4 = O=C([C@H]1[C@@H](Cc2ccncc2)CCN1[*:1])[*:2]; Ala(pyrimidin-5-yl) = N[C@@H](Cc1cncnc1)C(=O)O; Phe(4-CONH2) = NC(=O)c1ccc(C[C@H](N)C(=O)O)cc1; Phe(4-COOH) = N[C@@H](Cc1ccc(C(=O)O)cc1)C(=O)O; Pro(cis-4-F) = O=C(O)[C@@H]1C[C@H](F)CN1; AEF = NCCOc1ccc(C[C@H](N)C(=O)O)cc1; Dap(CONH2) = NC(=O)NC[C@H](N)C(=O)O; hTyr = N[C@@H](CCc1ccc(O)cc1)C(=O)O; d(αMeD) = C[C@@](N)(CC(=O)O)C(=O)O; h4Pal = N[C@@H](CCc1ccncc1)C(=O)O; hPhe = N[C@@H](CCc1ccccc1)C(=O)O; 4Pal = N[C@@H](Cc1ccncc1)C(=O)O; d(αMeS) = C[C@@](N)(CO)C(=O)O; NMeDab = CN[C@@H](CCN)C(=O)O; Dab = NCC[C@H](N)C(=O)O; Aib = CC(C)(N)C(=O)O; Bn = c1ccc(C*)cc1
The compounds below were run against T1, IL-1β (Homo sapiens, UniProt P01584) (assay: IL-6 assay in MRC5 cells: inhibition of IL-1β induced IL-6 secretion (AlphaLISA)). Details: inhibition of IL-1β induced IL-6 secretion in MRC5 cells; compound pre-incubated 1 hour with recombinant human IL-1β; read-out: MRC5 IC50.
T1 construct: purchased BioLegend 579404
Format: cell-based
In short: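 Compound was pre-incubated 1 h at ambient temperature with recombinant human IL-1β at 2λ EC80 before adding human lung fibroblast MRC5 cells (3000/well) in EMEM with 0.025% BSA. After overnight culture at 37 °C, 5% CO2, secreted IL-6 in conditioned medium was measured by AlphaLISA; IC50 from 4-parameter logistic fits.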

T1 sequence (P01584 117-269): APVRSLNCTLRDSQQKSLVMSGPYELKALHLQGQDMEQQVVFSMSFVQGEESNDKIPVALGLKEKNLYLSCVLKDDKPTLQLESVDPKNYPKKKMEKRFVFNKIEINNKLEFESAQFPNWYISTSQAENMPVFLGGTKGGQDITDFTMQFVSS

Point of comparison: `C[C@@H](c1c[nH]c2cccc(F)c12)[C@@H]1NC(=O)[C@@H]2C[C@H](F)CN2C(=O)CNC(=O)[C@H](Cc2ccc(C(=O)O)cc2)NC(=O)[C@H](Cc2ccncc2)NC(=O)[C@H](Cc2ccc(-c3ccc(C(=O)O)cc3)cc2)NC(=O)[C@H]2[C@@H](Cc3ccncc3)CCN2C(=O)CNC(=O)[C@H](CNC(N)=O)NC(=O)[C@H](CCC(N)=O)NC(=O)[C@H](Cc2cncnc2)NC(=O)[C@@](C)(CC(=O)O)NC(=O)[C@H](Cc2c[nH]c3ccccc23)NC(=O)[C@H](CO)NC(=O)C(C)(C)NC1=O` [Example 230] (cyclo([Bip(4'-COOH)][4Pal][Phe(4-COOH)]G[Pro(cis-4-F)][Trp(βS-Me,4-F)][Aib]SW[d(αMeD)][Ala(pyrimidin-5-yl)]Q[Dap(CONH2)]G[X4])), IC50 22 pM. Against it:
- C[C@@H](OCc1ccccc1)[C@@H]1NC(=O)[C@@](C)(CC(=O)O)NC(=O)[C@H](Cc2c[nH]c3ccccc23)NC(=O)[C@H](CO)NC(=O)C(C)(C)NC(=O)[C@H]([C@@H](C)c2c[nH]c3cccc(F)c23)NC(=O)[C@@H]2C[C@H](F)CN2C(=O)CNC(=O)[C@H](Cc2ccc(C(=O)O)cc2)NC(=O)[C@H](Cc2ccncc2)NC(=O)[C@H](Cc2ccc(-c3ccc(C(=O)O)cc3)cc2)NC(=O)[C@H]2[C@@H](Cc3ccncc3)CCN2C(=O)CNC(=O)[C@H](CCN)NC(=O)[C@H](CCC(N)=O)NC1=O [Example 229] (cyclo([Bip(4'-COOH)][4Pal][Phe(4-COOH)]G[Pro(cis-4-F)][Trp(βS-Me,4-F)][Aib]SW[d(αMeD)]T(Bn)Q[Dab]G[X4])) — within 1.5-fold, 23 pM

Same assay, conditions: inhibition of IL-1β induced IL-6 secretion in MRC5 cells; read-out: MRC5 IC50

Point of comparison: `C[C@@H](c1c[nH]c2cccc(F)c12)[C@@H]1NC(=O)[C@@H]2C[C@H](F)CN2C(=O)CNC(=O)[C@H](Cc2ccc(C(=O)O)cc2)NC(=O)[C@H](Cc2ccncc2)NC(=O)[C@H](Cc2ccc(-c3ccc(C(=O)O)cc3)cc2)NC(=O)[C@H]2[C@@H](Cc3ccncc3)CCN2C(=O)CNC(=O)[C@H](CCN)NC(=O)[C@H](CCC(N)=O)NC(=O)[C@H](CCc2ccccc2)NC(=O)[C@@](C)(CC(=O)O)NC(=O)[C@H](Cc2c[nH]c3ccccc23)NC(=O)[C@H](CO)NC(=O)C(C)(C)NC1=O` [Example 221] (cyclo([Bip(4'-COOH)][4Pal][Phe(4-COOH)]G[Pro(cis-4-F)][Trp(βS-Me,4-F)][Aib]SW[d(αMeD)][hPhe]Q[Dab]G[X4])), IC50 20 pM. Against it:
- CC(=O)NCCOc1ccc(C[C@@H]2NC(=O)[C@H]3C[C@@H](Cc4ccncc4)CN3C(=O)CNC(=O)[C@H](CCN)N(C)C(=O)[C@H](CCC(N)=O)NC(=O)[C@H](Cc3cncnc3)NC(=O)C(C)(C)NC(=O)[C@H](Cc3c[nH]c4ccccc34)NC(=O)[C@H](CO)NC(=O)C(C)(C)NC(=O)[C@H]([C@@H](C)c3c[nH]c4cccc(F)c34)NC(=O)[C@@H]3C[C@H](F)CN3C(=O)CNC(=O)[C@H](Cc3ccc(C(N)=O)cc3)NC(=O)[C@H](Cc3ccncc3)NC2=O)cc1 [Example 218] (cyclo([4Pal][Phe(4-CONH2)]G[Pro(cis-4-F)][Trp(βS-Me,4-F)][Aib]SW[Aib][Ala(pyrimidin-5-yl)]Q[NMeDab]G[dPro(4R-(4-pyridylmethyl))][AEF](Ac))) — 1.8-fold higher, 36 pM
- C[C@@H](c1c[nH]c2cccc(F)c12)[C@@H]1NC(=O)[C@@H]2C[C@H](F)CN2C(=O)CNC(=O)[C@H](Cc2ccc(C(=O)O)cc2)NC(=O)[C@H](Cc2ccncc2)NC(=O)[C@H](Cc2ccc(-c3ccc(C(=O)O)cc3)cc2)NC(=O)[C@H]2[C@@H](Cc3ccncc3)CCN2C(=O)CNC(=O)[C@H](CCN)NC(=O)[C@H](CCC(N)=O)NC(=O)[C@H](CCc2ccc(O)cc2)NC(=O)[C@@](C)(CC(=O)O)NC(=O)[C@H](Cc2c[nH]c3ccccc23)NC(=O)[C@H](CO)NC(=O)C(C)(C)NC1=O [Example 219] (cyclo([Bip(4'-COOH)][4Pal][Phe(4-COOH)]G[Pro(cis-4-F)][Trp(βS-Me,4-F)][Aib]SW[d(αMeD)][hTyr]Q[Dab]G[X4])) — within 1.5-fold, 18 pM
- C[C@@H](c1c[nH]c2cccc(F)c12)[C@@H]1NC(=O)[C@@H]2C[C@H](F)CN2C(=O)CNC(=O)[C@H](Cc2ccc(C(=O)O)cc2)NC(=O)[C@H](Cc2ccncc2)NC(=O)[C@H](Cc2ccc(-c3ccc(C(=O)O)cc3)cc2)NC(=O)[C@H]2[C@@H](Cc3ccncc3)CCN2C(=O)CNC(=O)[C@H](CCN)NC(=O)[C@H](CCC(N)=O)NC(=O)[C@H](CCc2ccc(O)cc2)NC(=O)C(C)(C)NC(=O)[C@H](Cc2c[nH]c3ccccc23)NC(=O)[C@H](CO)NC(=O)C(C)(C)NC1=O [Example 220] (cyclo([Bip(4'-COOH)][4Pal][Phe(4-COOH)]G[Pro(cis-4-F)][Trp(βS-Me,4-F)][Aib]SW[Aib][hTyr]Q[Dab]G[X4])) — 1.9-fold higher, 39 pM
- C[C@@H](c1c[nH]c2cccc(F)c12)[C@@H]1NC(=O)[C@@H]2C[C@H](F)CN2C(=O)CNC(=O)[C@H](Cc2ccc(C(=O)O)cc2)NC(=O)[C@H](Cc2ccncc2)NC(=O)[C@H](Cc2ccc(-c3ccc(C(=O)O)cc3)cc2)NC(=O)[C@H]2[C@@H](Cc3ccncc3)CCN2C(=O)CNC(=O)[C@H](CCN)NC(=O)[C@H](CCC(N)=O)NC(=O)[C@H](CCc2ccncc2)NC(=O)[C@@](C)(CC(=O)O)NC(=O)[C@H](Cc2c[nH]c3ccccc23)NC(=O)[C@H](CO)NC(=O)C(C)(C)NC1=O [Example 222] (cyclo([Bip(4'-COOH)][4Pal][Phe(4-COOH)]G[Pro(cis-4-F)][Trp(βS-Me,4-F)][Aib]SW[d(αMeD)][h4Pal]Q[Dab]G[X4])) — the same, 20 pM
- C[C@@H](c1c[nH]c2cccc(F)c12)[C@@H]1NC(=O)[C@@H]2C[C@H](F)CN2C(=O)CNC(=O)[C@H](Cc2ccc(C(=O)O)cc2)NC(=O)[C@H](Cc2ccncc2)NC(=O)[C@H](Cc2ccc(-c3ccc(C(=O)O)cc3)cc2)NC(=O)[C@H]2[C@@H](Cc3ccncc3)CCN2C(=O)CNC(=O)[C@H](CNC(N)=O)NC(=O)[C@H](CCC(N)=O)NC(=O)[C@H](CCc2ccncc2)NC(=O)[C@@](C)(CC(=O)O)NC(=O)[C@H](Cc2c[nH]c3ccccc23)NC(=O)[C@H](CO)NC(=O)C(C)(C)NC1=O [Example 223] (cyclo([Bip(4'-COOH)][4Pal][Phe(4-COOH)]G[Pro(cis-4-F)][Trp(βS-Me,4-F)][Aib]SW[d(αMeD)][h4Pal]Q[Dap(CONH2)]G[X4])) — within 1.5-fold, 27 pM
- COC[C@@]1(C)NC(=O)[C@H](Cc2c[nH]c3ccccc23)NC(=O)[C@H](CO)NC(=O)C(C)(C)NC(=O)[C@H]([C@@H](C)c2c[nH]c3cccc(F)c23)NC(=O)[C@@H]2C[C@H](F)CN2C(=O)CNC(=O)[C@H](Cc2ccc(C(=O)O)cc2)NC(=O)[C@H](Cc2ccncc2)NC(=O)[C@H](Cc2ccc(-c3ccc(C(=O)O)cc3)cc2)NC(=O)[C@H]2[C@@H](Cc3ccncc3)CCN2C(=O)CNC(=O)[C@H](CCN)NC(=O)[C@H](CCC(N)=O)NC(=O)[C@H](Cc2cncnc2)NC1=O [Example 224] (cyclo([Bip(4'-COOH)][4Pal][Phe(4-COOH)]G[Pro(cis-4-F)][Trp(βS-Me,4-F)][Aib]SW[d(αMeS)](Me)[Ala(pyrimidin-5-yl)]Q[Dab]G[X4])) — 1.5-fold higher, 30 pM
- C[C@@H](c1c[nH]c2cccc(F)c12)[C@@H]1NC(=O)[C@@H]2C[C@H](F)CN2C(=O)CNC(=O)[C@H](Cc2ccc(C(=O)O)cc2)NC(=O)[C@H](Cc2ccncc2)NC(=O)[C@H](Cc2ccc(-c3ccc(C(=O)O)cc3)cc2)NC(=O)[C@H]2[C@@H](Cc3ccncc3)CCN2C(=O)CNC(=O)[C@H](CCN)NC(=O)[C@H](CCC(N)=O)NC(=O)[C@H](Cc2cncnc2)NC(=O)[C@@](C)(CC(=O)O)NC(=O)[C@H](Cc2c[nH]c3cccc(Cl)c23)NC(=O)[C@H](CO)NC(=O)C(C)(C)NC1=O [Example 225] (cyclo([Bip(4'-COOH)][4Pal][Phe(4-COOH)]G[Pro(cis-4-F)][Trp(βS-Me,4-F)][Aib]S[Trp(4-Cl)][d(αMeD)][Ala(pyrimidin-5-yl)]Q[Dab]G[X4])) — within 1.5-fold, 19 pM
- C[C@@H](c1c[nH]c2cccc(F)c12)[C@@H]1NC(=O)[C@@H]2C[C@H](F)CN2C(=O)CNC(=O)[C@H](Cc2ccc(C(=O)O)cc2)NC(=O)[C@H](Cc2ccncc2)NC(=O)[C@H](Cc2ccc(-c3ccc(C(=O)O)cc3)cc2)NC(=O)[C@H]2[C@@H](Cc3ccncc3)CCN2C(=O)CNC(=O)[C@H](CNC(N)=O)NC(=O)[C@H](CCC(N)=O)NC(=O)[C@H](Cc2cncnc2)NC(=O)[C@@](C)(CC(=O)O)NC(=O)[C@H](Cc2c[nH]c3cccc(Cl)c23)NC(=O)[C@H](CO)NC(=O)C(C)(C)NC1=O [Example 226] (cyclo([Bip(4'-COOH)][4Pal][Phe(4-COOH)]G[Pro(cis-4-F)][Trp(βS-Me,4-F)][Aib]S[Trp(4-Cl)][d(αMeD)][Ala(pyrimidin-5-yl)]Q[Dap(CONH2)]G[X4])) — within 1.5-fold, 22 pM
- CO[C@H](C)[C@@H]1NC(=O)[C@@](C)(CC(=O)O)NC(=O)[C@H](Cc2c[nH]c3ccccc23)NC(=O)[C@H](CO)NC(=O)C(C)(C)NC(=O)[C@H]([C@@H](C)c2c[nH]c3cccc(F)c23)NC(=O)[C@@H]2C[C@H](F)CN2C(=O)CNC(=O)[C@H](Cc2ccc(C(=O)O)cc2)NC(=O)[C@H](Cc2ccncc2)NC(=O)[C@H](Cc2ccc(-c3ccc(C(=O)O)cc3)cc2)NC(=O)[C@H]2[C@@H](Cc3ccncc3)CCN2C(=O)CNC(=O)[C@H](CCN)NC(=O)[C@H](CCC(N)=O)NC1=O [Example 227] (cyclo([Bip(4'-COOH)][4Pal][Phe(4-COOH)]G[Pro(cis-4-F)][Trp(βS-Me,4-F)][Aib]SW[d(αMeD)]T(Me)Q[Dab]G[X4])) — within 1.5-fold, 14 pM
- CO[C@H](C)[C@@H]1NC(=O)[C@@](C)(CC(=O)O)NC(=O)[C@H](Cc2c[nH]c3ccccc23)NC(=O)[C@H](CO)NC(=O)C(C)(C)NC(=O)[C@H]([C@@H](C)c2c[nH]c3cccc(F)c23)NC(=O)[C@@H]2C[C@H](F)CN2C(=O)CNC(=O)[C@H](Cc2ccc(C(=O)O)cc2)NC(=O)[C@H](Cc2ccncc2)NC(=O)[C@H](Cc2ccc(-c3ccc(C(=O)O)cc3)cc2)NC(=O)[C@H]2[C@@H](Cc3ccncc3)CCN2C(=O)CNC(=O)[C@H](CNC(N)=O)NC(=O)[C@H](CCC(N)=O)NC1=O [Example 228] (cyclo([Bip(4'-COOH)][4Pal][Phe(4-COOH)]G[Pro(cis-4-F)][Trp(βS-Me,4-F)][Aib]SW[d(αMeD)]T(Me)Q[Dap(CONH2)]G[X4])) — within 1.5-fold, 21 pM
